Test results: PMC7316778 (Nature Communications, 2020)
Read-outs that look alike come from different tables or passages of the source.

Experiments:
Assay in all cases: SelectScreen kinase assay
[1] = target: CLK3 (Homo sapiens, UniProt P49761)
Procedure: (§1) Selectivity profiling assays were performed by the Invitrogen SelectScreen™ Services. […] The concentration of ATP was selected to be equal to the KM, unless indicated otherwise.

[2] = target: CSK (Homo sapiens, UniProt P41240); settings: for Inhibition at 1 µM (%): CSK, ZLYTE, ATP Km app
Procedure: as §1

[3] = target: CSNK1D (CK1 delta) (Homo sapiens, UniProt P48730); settings: 1 h, 1 μM WEL028, 1 h preincubation
Procedure: as §1

[4] = target: CSNK2A2 (CK2 alpha 2) (Homo sapiens, UniProt P19784)
Procedure: as §1

[5] = target: T1, DCAMKL2 (DCK2) (Homo sapiens, UniProt Q8N568)
T1 sequence (Q8N568 1-766): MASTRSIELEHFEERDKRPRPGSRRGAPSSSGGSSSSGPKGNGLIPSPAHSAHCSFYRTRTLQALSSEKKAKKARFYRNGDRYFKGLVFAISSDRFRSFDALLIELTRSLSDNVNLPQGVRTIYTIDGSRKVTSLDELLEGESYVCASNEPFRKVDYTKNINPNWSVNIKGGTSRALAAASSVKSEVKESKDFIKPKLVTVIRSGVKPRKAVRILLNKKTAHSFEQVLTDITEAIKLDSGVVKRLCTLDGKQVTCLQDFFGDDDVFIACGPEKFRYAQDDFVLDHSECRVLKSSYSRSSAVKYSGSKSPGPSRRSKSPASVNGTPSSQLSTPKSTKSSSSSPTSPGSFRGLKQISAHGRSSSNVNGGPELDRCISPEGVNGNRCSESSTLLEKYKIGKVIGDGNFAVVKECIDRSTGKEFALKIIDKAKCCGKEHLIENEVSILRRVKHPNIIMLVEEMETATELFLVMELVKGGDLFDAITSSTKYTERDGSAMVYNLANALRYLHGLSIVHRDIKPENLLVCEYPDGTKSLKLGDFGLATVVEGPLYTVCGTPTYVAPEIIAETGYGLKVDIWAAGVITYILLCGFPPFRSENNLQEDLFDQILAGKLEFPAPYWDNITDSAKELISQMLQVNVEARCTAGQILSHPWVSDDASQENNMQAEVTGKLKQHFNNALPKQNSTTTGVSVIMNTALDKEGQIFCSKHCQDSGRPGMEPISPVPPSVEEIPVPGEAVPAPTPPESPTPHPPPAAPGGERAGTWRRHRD
Procedure: as §1

[6] = target: GRK4 (Homo sapiens, UniProt P32298); settings: for Inhibition at 1 µM (%): GRK4, ZLYTE, ATP Km app
Procedure: as §1

[7] = target: T2, KSR2 (Homo sapiens, UniProt Q6VAB6); settings: for Inhibition at 1 µM (%): KSR2, ZLYTE, ATP Km app
T2 sequence (Q6VAB6 1-950): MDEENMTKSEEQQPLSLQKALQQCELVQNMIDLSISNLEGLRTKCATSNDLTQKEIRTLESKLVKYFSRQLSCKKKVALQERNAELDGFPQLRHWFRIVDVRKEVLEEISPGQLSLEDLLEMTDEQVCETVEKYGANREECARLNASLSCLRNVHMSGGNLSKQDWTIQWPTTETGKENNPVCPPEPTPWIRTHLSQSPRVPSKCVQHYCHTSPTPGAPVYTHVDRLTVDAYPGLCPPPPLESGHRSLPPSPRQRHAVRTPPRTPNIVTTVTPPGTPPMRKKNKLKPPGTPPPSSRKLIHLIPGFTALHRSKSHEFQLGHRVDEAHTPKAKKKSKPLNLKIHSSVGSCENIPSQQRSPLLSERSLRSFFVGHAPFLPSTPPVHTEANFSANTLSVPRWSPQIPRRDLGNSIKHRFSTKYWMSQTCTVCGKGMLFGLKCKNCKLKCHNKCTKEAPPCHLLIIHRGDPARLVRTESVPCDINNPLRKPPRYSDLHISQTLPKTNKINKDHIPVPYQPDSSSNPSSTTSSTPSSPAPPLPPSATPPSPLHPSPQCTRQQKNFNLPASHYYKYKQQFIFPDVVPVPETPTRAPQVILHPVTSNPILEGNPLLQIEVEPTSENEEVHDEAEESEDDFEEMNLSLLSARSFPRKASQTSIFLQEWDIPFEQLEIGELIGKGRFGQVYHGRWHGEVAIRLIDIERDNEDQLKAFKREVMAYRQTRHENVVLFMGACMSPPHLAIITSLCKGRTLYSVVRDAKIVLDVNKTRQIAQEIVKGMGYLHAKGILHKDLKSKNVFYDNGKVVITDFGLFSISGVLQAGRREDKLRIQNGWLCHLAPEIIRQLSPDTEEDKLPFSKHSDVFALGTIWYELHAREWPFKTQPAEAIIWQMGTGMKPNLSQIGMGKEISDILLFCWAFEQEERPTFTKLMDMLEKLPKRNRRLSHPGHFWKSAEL
Procedure: as §1

[8] = target: PAK6 (Homo sapiens, UniProt Q9NQU5); settings: 1 h, 1 μM WEL028, 1 h preincubation
Procedure: as §1

[9] = target: PIM2 (Homo sapiens, UniProt Q9P1W9)
Procedure: as §1

[10] = 1 h, 1 μM WEL028, 1 h preincubation

CSK, sequence (P41240 whole entry): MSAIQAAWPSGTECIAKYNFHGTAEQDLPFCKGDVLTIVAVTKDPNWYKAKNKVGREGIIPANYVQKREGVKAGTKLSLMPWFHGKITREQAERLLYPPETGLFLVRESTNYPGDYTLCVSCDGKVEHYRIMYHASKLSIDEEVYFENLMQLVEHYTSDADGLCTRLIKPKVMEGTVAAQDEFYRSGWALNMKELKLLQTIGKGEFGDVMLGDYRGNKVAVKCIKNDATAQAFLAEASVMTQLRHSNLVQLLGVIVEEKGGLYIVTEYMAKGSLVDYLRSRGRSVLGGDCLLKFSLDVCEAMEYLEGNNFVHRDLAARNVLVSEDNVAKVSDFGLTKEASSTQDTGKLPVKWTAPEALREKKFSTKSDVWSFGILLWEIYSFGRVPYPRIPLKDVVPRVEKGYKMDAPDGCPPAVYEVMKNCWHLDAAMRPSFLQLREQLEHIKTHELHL
GRK4, sequence (P32298 whole entry): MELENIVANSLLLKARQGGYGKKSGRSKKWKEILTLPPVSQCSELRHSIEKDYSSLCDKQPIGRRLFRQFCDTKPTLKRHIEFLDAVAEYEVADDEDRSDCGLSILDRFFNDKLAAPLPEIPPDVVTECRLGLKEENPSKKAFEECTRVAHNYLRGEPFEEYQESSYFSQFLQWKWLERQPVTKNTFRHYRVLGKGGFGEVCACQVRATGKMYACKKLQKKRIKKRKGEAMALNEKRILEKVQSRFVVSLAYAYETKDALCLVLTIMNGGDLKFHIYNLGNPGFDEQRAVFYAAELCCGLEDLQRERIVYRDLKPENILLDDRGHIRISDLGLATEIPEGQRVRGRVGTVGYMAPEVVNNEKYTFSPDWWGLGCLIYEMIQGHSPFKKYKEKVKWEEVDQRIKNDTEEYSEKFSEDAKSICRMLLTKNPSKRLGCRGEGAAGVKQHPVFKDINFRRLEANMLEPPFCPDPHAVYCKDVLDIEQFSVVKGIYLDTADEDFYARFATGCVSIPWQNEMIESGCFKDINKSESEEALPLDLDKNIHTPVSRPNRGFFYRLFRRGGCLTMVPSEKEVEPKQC
PIM2, sequence (Q9P1W9 whole entry): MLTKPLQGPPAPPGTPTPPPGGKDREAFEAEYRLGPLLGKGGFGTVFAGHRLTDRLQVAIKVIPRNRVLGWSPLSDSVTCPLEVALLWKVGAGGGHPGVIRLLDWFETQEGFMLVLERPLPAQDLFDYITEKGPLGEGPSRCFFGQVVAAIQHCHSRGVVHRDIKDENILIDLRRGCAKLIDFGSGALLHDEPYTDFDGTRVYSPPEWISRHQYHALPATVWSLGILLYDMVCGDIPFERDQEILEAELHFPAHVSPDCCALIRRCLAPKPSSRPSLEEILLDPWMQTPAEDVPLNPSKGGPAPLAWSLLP
CLK3, sequence (P49761 whole entry): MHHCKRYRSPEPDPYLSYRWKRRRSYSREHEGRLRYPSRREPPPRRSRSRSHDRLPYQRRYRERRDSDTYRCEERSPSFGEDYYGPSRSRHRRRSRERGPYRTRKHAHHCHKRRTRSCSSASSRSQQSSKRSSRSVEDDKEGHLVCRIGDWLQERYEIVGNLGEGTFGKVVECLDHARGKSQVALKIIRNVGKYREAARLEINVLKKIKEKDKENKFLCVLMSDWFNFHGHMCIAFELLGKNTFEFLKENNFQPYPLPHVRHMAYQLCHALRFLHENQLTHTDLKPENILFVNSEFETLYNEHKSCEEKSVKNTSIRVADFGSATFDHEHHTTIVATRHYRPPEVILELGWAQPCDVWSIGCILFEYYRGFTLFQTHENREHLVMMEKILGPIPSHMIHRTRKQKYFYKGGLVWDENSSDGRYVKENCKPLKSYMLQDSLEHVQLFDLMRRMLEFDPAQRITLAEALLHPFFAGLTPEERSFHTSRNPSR
CSNK2A2 (CK2 alpha 2), sequence (P19784 whole entry): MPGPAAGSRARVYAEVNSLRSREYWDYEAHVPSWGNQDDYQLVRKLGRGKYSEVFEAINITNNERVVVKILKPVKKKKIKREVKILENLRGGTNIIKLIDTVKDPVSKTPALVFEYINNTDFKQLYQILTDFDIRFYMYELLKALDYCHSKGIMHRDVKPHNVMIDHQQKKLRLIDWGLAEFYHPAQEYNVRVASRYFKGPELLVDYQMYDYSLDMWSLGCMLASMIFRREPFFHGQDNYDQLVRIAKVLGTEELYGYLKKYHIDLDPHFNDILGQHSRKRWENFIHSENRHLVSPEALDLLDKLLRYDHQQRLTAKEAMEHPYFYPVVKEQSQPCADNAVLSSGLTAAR
PAK6, sequence (Q9NQU5 whole entry): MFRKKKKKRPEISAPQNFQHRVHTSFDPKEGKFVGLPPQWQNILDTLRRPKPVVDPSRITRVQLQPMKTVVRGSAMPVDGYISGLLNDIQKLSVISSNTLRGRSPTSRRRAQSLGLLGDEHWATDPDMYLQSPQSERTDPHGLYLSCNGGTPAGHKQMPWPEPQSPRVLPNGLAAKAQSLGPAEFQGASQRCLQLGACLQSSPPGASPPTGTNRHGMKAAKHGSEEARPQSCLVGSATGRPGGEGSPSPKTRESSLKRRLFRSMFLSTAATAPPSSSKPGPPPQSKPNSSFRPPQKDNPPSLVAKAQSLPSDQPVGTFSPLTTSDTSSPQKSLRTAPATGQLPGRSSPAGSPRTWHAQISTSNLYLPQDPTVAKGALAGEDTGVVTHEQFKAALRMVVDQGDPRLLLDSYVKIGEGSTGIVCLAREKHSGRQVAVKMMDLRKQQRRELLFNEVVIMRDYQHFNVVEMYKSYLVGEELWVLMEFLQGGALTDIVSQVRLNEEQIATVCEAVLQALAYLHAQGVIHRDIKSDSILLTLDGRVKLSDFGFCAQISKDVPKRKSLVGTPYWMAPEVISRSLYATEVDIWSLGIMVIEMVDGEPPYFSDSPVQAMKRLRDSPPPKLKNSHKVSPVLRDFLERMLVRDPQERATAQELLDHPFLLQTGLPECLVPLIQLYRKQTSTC
CSNK1D (CK1 delta), sequence (P48730 whole entry): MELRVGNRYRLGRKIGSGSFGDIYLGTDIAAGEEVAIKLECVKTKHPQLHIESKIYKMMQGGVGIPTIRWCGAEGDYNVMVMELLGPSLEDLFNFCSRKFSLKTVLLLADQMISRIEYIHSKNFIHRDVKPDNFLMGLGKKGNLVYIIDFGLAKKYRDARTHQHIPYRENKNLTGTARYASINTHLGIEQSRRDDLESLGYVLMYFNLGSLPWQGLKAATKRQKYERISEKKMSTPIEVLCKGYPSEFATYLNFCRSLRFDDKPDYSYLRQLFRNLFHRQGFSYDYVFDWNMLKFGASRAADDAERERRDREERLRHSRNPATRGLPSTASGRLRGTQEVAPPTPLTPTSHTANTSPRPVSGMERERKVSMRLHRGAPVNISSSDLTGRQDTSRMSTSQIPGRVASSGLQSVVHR

## C#CCOc1ccc(Nc2ncc(Cl)c(Nc3ccccc3NC(=O)C=C)n2)c(OC)c1 [Compound 6]
[1]; [10]
  inhibition at 1 µM: 11%
[1]; CLK3, 1 µM, ZLYTE, ATP Km app
  Inhibition at 1 µM (%): 23%
[2]; 1 μM WEL028, 1 h preincubation
  Inhibition (%): 5%
[2]
  Inhibition at 1 µM (%): 2%
[2]; listed as WEL028, 1 µM
  Inhibition at 1 µM (%): 8%
[3]
  inhibition at 1 µM: 18%
[4]; 1 h
  inhibition at 1 µM: 6%
[4]; read-out: Inhibition at 1 µM (%)
  inhibition at 1 µM: 6%
[5]; [10]
  inhibition at 1 µM: 3%
[5]; DCAMKL2 (DCK2), 1 µM, ZLYTE, ATP Km app, listed as WEL028, 1 µM
  Inhibition at 1 µM (%): 2%
[5]; read-out: Inhibition at 1 µM (%), DCAMKL2 (DCK2), 1 µM, ZLYTE, ATP Km app
  inhibition at 1 µM: 4%
[6]; [10]
  inhibition at 1 µM: -1%
[6]
  Inhibition at 1 µM (%): -2%
[6]; listed as WEL028, 1 µM
  Inhibition at 1 µM (%): 1%
[7]; [10]
  inhibition at 1 µM: 1%
[7]
  Inhibition at 1 µM (%): 2%
[7]; listed as WEL028, 1 µM
  Inhibition at 1 µM (%): 0%
[8]
  inhibition at 1 µM: -7%
[9]; [10]
  inhibition at 1 µM: -4%
[9]; PIM2, 1 µM, ZLYTE, ATP Km app
  Inhibition at 1 µM (%): -3%
